In one data set the test system is poliovirus (PV type 1). Briefly: microbe, parasite or virus in culture. The class given is cell-based. The note with it: Enterovirus C, read-out: PV-1 EC50.
Data set [1] is described as follows: Cytotoxicity in HCV-1a replicon cells, Promega CellTiter-Glo cell viability assay. (Replicon systems follow genome replication, usually without infectious particles.)
Data set [2] is described as follows: in vitro. The note with it: African green monkey, PV CC50.
The test system of a further data set is poliovirus (PV type 2). The data set can be described thus: microbe, parasite or virus in culture. The format is cell-based. To be noted: Enterovirus C, read-out: PV-2 EC50.
The test system of another data set is HIV-2 strain (ROD). The data set can be described thus: Inhibition of replication of HIV-2 (ROD strain) in MT-4 cells, MTT assay. The format is cell-based. The note with it: Human immunodeficiency virus 2, MT4, 120 h, read-out: EC50 (μM) HIV-2 (ROD). In general terms: Tetrazolium assays rely on reduction of a dye to a coloured formazan, in cell work by metabolically active cells.

Another data set deals with poliovirus (PV type 3). Briefly: microbe, parasite or virus in culture. The class given is cell-based. To be noted: Enterovirus C, read-out: PV-3 EC50.
The nature of data set [3]: in vitro. To be noted: human.
A short description of data set [4]: in vitro. The note with it: human, PV CC50.
For data set [5], the system named is genotype 1a H-77 replicon. Briefly: HCV-1a replicon potency in RLuc-1 cells, bioluminescence. The class given is cell-based. To be noted: for HCV-1a Replicon Selectivity Index: CC50/EC50, genotype 1a replicon; for EC50: Hepatitis C virus, 72 h, read-out: HCV-1a Replicon EC50 (μM).
The subject of a further data set is HIV-1 strain IIIB. The data set can be described thus: Inhibition of replication of HIV-1 (IIIB strain) in MT-4 cells, MTT assay. The class given is cell-based. To be noted: Human immunodeficiency virus 1, IIIB, MT4, 120 h, read-out: EC50 (μM) HIV-1 (IIIB).
Data set [6] in a line: Cytostatic/cytotoxic effect in Hela Rh cells (rhinovirus methodology, MTS). To be noted: human, CC50, Hela Rh cells.
The mark [7] stands for this setting: MT-4 cells, MTT assay, five days after infection, 50% protection from cytopathic effect.

SMILES strings stand for the structures. In brackets after ≈: the same amount, converted by molar mass. Read-outs that look alike come from different tables or passages of the source.

As for `Nc1nc(N2CCN(C(=O)COc3ccc(Cl)cc3)CC2)c2nc(CCc3ccc(F)cc3)sc2n1` [Example 49, 1-(4-(5-amino-2-(4-fluorophenethyl)-thiazolo[5,4-d]pyrimidin-7-yl)piperazin-1-yl)-2-(4-chlorophenoxy)ethanone], the EC50 with poliovirus (PV type 1) (HeLa) is 0.13 µg/mL (≈ 0.247 µM); in the data set on poliovirus (PV type 1) (Vero), 0.13 µg/mL (≈ 0.247 µM); in the data set on poliovirus (PV type 2) (HeLa), 0.13 µg/mL (≈ 0.247 µM); in the data set on poliovirus (PV type 2) (Vero), 0.21 µg/mL (≈ 0.398 µM); with HIV-2 strain (ROD) (setting [7]), over 7.06 µM; in the data set with poliovirus (PV type 3) (HeLa) it was over 50 µg/mL. In addition, the values for the EC50 (in the data set with poliovirus (PV type 3) (Vero); in data set [5]; in the data set on HIV-1 strain IIIB (setting [7])) were 1.17 µg/mL (≈ 2.22 µM), 42.1 µM and 1.13 µM, respectively. Further, the CC50 at 72 h in data set [1] is over 44.4 µM. Besides, the figures for the CC50 in the data set “in vitro [2]”, in the data set “in vitro [3]” and in “in vitro [4]” were 101 µg/mL (≈ 192 µM), over 50 µM and over 50 µg/mL, respectively. The “HCV-1a Replicon Selectivity Index” value in [5] is over 1.1.
With `COCc1nc2c(N3CCN(C(=O)COc4ccc(Cl)cc4)CC3)nc(N)nc2o1` [Example 186, 5-amino-7-[4-(4-chlorophenoxyacetyl)piperazin-1-yl]-2-methoxylmethyloxazolo[5,4-d]pyrimidine], the EC50 worked out at 3.16 µg/mL (≈ 7.3 µM) in the data set on poliovirus (PV type 1) (HeLa); 1.07 µg/mL (≈ 2.47 µM) in the data set with poliovirus (PV type 1) (Vero); 9.42 µg/mL (≈ 21.8 µM) in the data set on poliovirus (PV type 2) (HeLa); 2.96 µg/mL (≈ 6.84 µM) in the data set on poliovirus (PV type 2) (Vero); 3.21 µg/mL (≈ 7.42 µM) in the data set with poliovirus (PV type 3) (HeLa); 10.7 µg/mL (≈ 24.7 µM) in the data set with poliovirus (PV type 3) (Vero). The concentration giving a half-maximal response (EC50) in [5] is over 44.4 µM. For the same compound, the CC50 at 72 h in data set [1] is over 44.4 µM. Moreover, the CC50 is 95.2 µg/mL (≈ 220 µM) in “in vitro [2]” and over 50 µg/mL in the data set “in vitro [4]”.
For `Nc1nc(N2CCN(C(=O)COc3ccc(Cl)cc3)CC2)c2nc(C3CCCCC3)oc2n1` [Example 187, 5-amino-2-cyclohexyl-7-[4-(4-chlorophenoxyacetyl)piperazin-1-yl]oxazolo[5,4-d]pyrimidine], the 50% effective concentration (EC50) is over 50 µg/mL in the data set on poliovirus (PV type 1) (HeLa); over 50 µg/mL with poliovirus (PV type 1) (Vero); over 50 µg/mL in the data set on poliovirus (PV type 2) (HeLa); at least 50 µg/mL in the data set on poliovirus (PV type 2) (Vero); over 50 µg/mL in the data set with poliovirus (PV type 3) (HeLa); over 50 µg/mL with poliovirus (PV type 3) (Vero). Also, the EC50 in data set [5] stood at 19 µM. In data set [1], this compound returned a CC50 at 72 h of 24.3 µM. For the same compound, the CC50 in “in vitro [2]” was 118 µg/mL (≈ 250 µM); in the data set “in vitro [4]” it was over 50 µg/mL. The “HCV-1a Replicon Selectivity Index” value in [5] is listed as 1.3.
Consider `Nc1nc(N2CCN(C(=O)COc3ccc(Cl)cc3)CC2)c2nc(CCc3ccccc3)oc2n1` [Example 189, 5-amino-2-(2-phenylethyl)-7-[4-(4-chlorophenoxyacetyl)piperazin-1-yl]oxazolo[5,4-d]pyrimidine], for which the EC50 with poliovirus (PV type 1) (HeLa) was 1.14 µg/mL (≈ 2.31 µM); in the data set on poliovirus (PV type 1) (Vero), 0.86 µg/mL (≈ 1.74 µM); in the data set on poliovirus (PV type 2) (HeLa) it was 1.15 µg/mL (≈ 2.33 µM); with poliovirus (PV type 2) (Vero), 0.4 µg/mL (≈ 0.811 µM); in the data set with poliovirus (PV type 3) (HeLa), over 50 µg/mL; in the data set on poliovirus (PV type 3) (Vero), 1.19 µg/mL (≈ 2.41 µM). For the same compound, in data set [5], the EC50 was 20.6 µM. For the same compound, in data set [1], the CC50 at 72 h worked out at 40.5 µM. The CC50 in “in vitro [2]” was over 150 µg/mL; in “in vitro [4]” it was over 50 µg/mL. In addition, the “HCV-1a Replicon Selectivity Index” value in [5] came to 2.0.
`Cc1ccc(-c2nc3c(N4CCN(C(=O)COc5ccc(Cl)cc5)CC4)nc(N)nc3s2)cc1` [Example 295, 1-(4-(5-amino-2-p-tolylthiazolo[5,4-d]pyrimidin-7-yl)piperazin-1-yl)-2-(4-chlorophenoxy)ethanone] gave a CC50 in [6] of over 50 µg/mL.
On to `CCOC(=O)c1nc(N2CCN(C(=O)Nc3cccc(C)c3)CC2)c2cc(-c3ccc(F)cc3)sc2n1` [Example 361, ethyl 6-(4-fluorophenyl)-4-(4-(m-tolylcarbamoyl)piperazin-1-yl)thieno[2,3-d]pyrimidine-2-carboxylate], for which the 50% effective concentration (EC50) in the data set on poliovirus (PV type 1) (HeLa) was over 50 µg/mL; in the data set with poliovirus (PV type 1) (Vero), over 50 µg/mL; in the data set on poliovirus (PV type 2) (HeLa), at least 50 µg/mL; in the data set with poliovirus (PV type 2) (Vero), over 50 µg/mL; in the data set with HIV-2 strain (ROD) it was at least 156 µM; in the data set on poliovirus (PV type 3) (HeLa), over 50 µg/mL. Besides, the EC50 with poliovirus (PV type 3) (Vero) is over 50 µg/mL; with HIV-1 strain IIIB, at least 156 µM. Further, the CC50 in “in vitro [2]” was 61.7 µg/mL (≈ 119 µM); in “in vitro [3]” it was 156 µM; in the data set “in vitro [4]”, over 50 µg/mL.
`Cc1cccc(NC(=O)N2CCN(c3nc(C(N)=O)nc4sc(-c5ccc(F)cc5)cc34)CC2)c1` [Example 362, 6-(4-fluorophenyl)-4-(4-(m-tolylcarbamoyl)piperazin-1-yl)thieno[2,3-d]pyrimidine-2-carboxamide]: the EC50 is over 50 µg/mL with poliovirus (PV type 1) (HeLa); over 50 µg/mL in the data set with poliovirus (PV type 1) (Vero); at least 50 µg/mL in the data set on poliovirus (PV type 2) (HeLa); over 50 µg/mL with poliovirus (PV type 2) (Vero); at least 255 µM in the data set on HIV-2 strain (ROD); over 50 µg/mL in the data set with poliovirus (PV type 3) (HeLa). Also, the EC50 in the data set on poliovirus (PV type 3) (Vero) was over 50 µg/mL; in the data set with HIV-1 strain IIIB, at least 255 µM. The CC50 in the data set “in vitro [2]” was 128 µg/mL (≈ 261 µM); in the data set “in vitro [3]”, 255 µM; in the data set “in vitro [4]” it was over 50 µg/mL.
Turning to `Nc1nc(N2CCN(C(=O)COc3ccc(Cl)cc3)CC2)c2nc(-c3ccc(F)cc3)[nH]c2n1` [Example 389, 1-(4-(2-amino-8-(4-fluorophenyl)-9H-purin-6-yl)piperazin-1-yl)-2-(4-chlorophenoxy)ethanone], the EC50 in the data set on poliovirus (PV type 1) (HeLa) was over 16.7 µg/mL; in the data set with poliovirus (PV type 1) (Vero) it was over 50 µg/mL; in the data set with poliovirus (PV type 2) (HeLa), 16.7 µg/mL (≈ 34.6 µM); in the data set with poliovirus (PV type 2) (Vero), at least 50 µg/mL; with poliovirus (PV type 3) (HeLa), 37.6 µg/mL (≈ 78 µM); in the data set with poliovirus (PV type 3) (Vero), over 50 µg/mL. Moreover, the EC50 in data set [5] is over 44.4 µM. Besides, the CC50 at 72 h in [1] was over 44.4 µM. Also, the CC50 in the data set “in vitro [2]” is over 150 µg/mL; in the data set “in vitro [4]”, over 50 µg/mL.

In general, EC50 refers to the concentration giving half of the maximal effect.

(Values after patent US9730944B2, “Antiviral activity of novel bicyclic heterocycles” (priority 2010, dated 2017).)
